PubChem BioAssay (NCI)
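Values below derive from 48-hour exposures of cells grown in 96-well plates, with endpoints linearly interpolated between the two concentrations bracketing the appropriate inhibition level. Here, GI50 denotes the concentration required for 50% inhibition of growth. TGI marks complete inhibition of growth.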

How the values were obtained:
Assay in all cases: NCI tumour cell line growth inhibition, 48 h
[1] = tested on: NCI-H23 lung
[2] = tested on: K-562 leukemia
[3] = tested on: MALME-3M melanoma
[4] = tested on: HOP-62 NSCLC
[5] = tested on: UACC-62 melanoma
[6] = tested on: SF-268 CNS
[7] = tested on: OVCAR-5 ovarian
[8] = tested on: LOX IMVI melanoma
[9] = tested on: UO-31 renal
[10] = tested on: TK-10 renal

| Compound | TGI [1] | TGI [2] | TGI [3] | TGI [4] | TGI [5] | TGI [6] | TGI [7] | TGI [8] | TGI [9] | TGI [10] | GI50 [1] | GI50 [2] | GI50 [3] | GI50 [4] | GI50 [5] | GI50 [6] | GI50 [7] | GI50 [8] | GI50 [9] | GI50 [10] |
| --- | --- | --- | --- | --- | --- | --- | --- | --- | --- | --- | --- | --- | --- | --- | --- | --- | --- | --- | --- | --- |
| COc1cc(C2c3cc4c(cc3OC(N3CCCC3)C2C)OCO4)cc(OC)c1OC (stereo not given) | 7.27 µM | > 19.1 µM | 34.7 µM | 22.5 µM | 20.7 µM | > 59.3 µM | > 47.9 µM | 25.9 µM | 41.2 µM | 30.2 µM |  |  |  |  |  |  |  |  |  |  |
| COc1c(CCC[P+](c2ccccc2)(c2ccccc2)c2ccccc2)cc2c(c1OC)OCO2 | 10.3 µM | > 100 µM | 10.2 µM | 14.5 µM | 5.53 µM | 13.1 µM | 81.2 µM | 10.4 µM | 47.2 µM | 34.7 µM | 2.19 µM | 0.529 µM | 0.599 µM | 3.42 µM | 0.569 µM | 2.04 µM | 2.74 µM | 2.4 µM | 11.9 µM | 4.71 µM |
| CCCCCCCCCCCCOC(=S)NCCCC | 57.9 µM | 41.3 µM | 64 µM | 73.4 µM | 40.6 µM | 58.1 µM | 51.4 µM | 32 µM | 20.1 µM | > 100 µM |  |  |  |  |  |  |  |  |  |  |
| COc1ccc(-c2cc(=O)c3cc4c(cc3[nH]2)OCO4)c(OC)c1OC | > 100 µM | > 100 µM | > 100 µM | > 100 µM | > 100 µM | > 100 µM |  | > 100 µM | > 100 µM | > 100 µM |  |  |  |  |  |  |  |  |  |  |
| CCCc1[nH]nc(CCC(=O)N(Cc2ccccc2)Cc2ccccc2)c1CC | > 100 µM | > 100 µM | > 100 µM | > 100 µM | > 100 µM | > 100 µM | > 100 µM | > 100 µM | > 100 µM | > 100 µM |  |  |  |  |  |  |  |  |  |  |
| C1CCSCCCCSCCCCSCCCCSC1 | > 100 µM | > 100 µM |  | > 100 µM | > 100 µM | > 100 µM | > 100 µM | > 100 µM | > 100 µM | > 100 µM |  |  |  |  |  |  |  |  |  |  |
| c1cc(-c2cn3ccsc3n2)ccn1 | > 100 µM | > 70.3 µM | > 100 µM | > 100 µM | > 100 µM | > 100 µM | > 100 µM | > 100 µM | > 100 µM | > 100 µM |  |  |  |  |  |  |  |  |  |  |
| O=CNc1c(Cl)cc2c(c1Cl)Cc1cc([N+](=O)[O-])ccc1-2 | > 66.8 µM | > 100 µM | > 100 µM | > 67.5 µM | > 100 µM | > 100 µM | > 100 µM | > 54.7 µM | 29.3 µM | > 59.5 µM | 5.56 µM | 1.38 µM | 3.85 µM | 5.76 µM | 3.98 µM | 6.63 µM | 16.6 µM | 4.59 µM | 1.81 µM | 5.63 µM |
| C=C1C(=O)O[C@H]2[C@H]1[C@H](OC(=O)/C(C)=C\C)CC(=C)[C@@H]1[C@H](O)[C@H]3O[C@@]3(C)[C@@]12O | > 100 µM | > 100 µM | > 100 µM | > 100 µM | > 100 µM | > 100 µM |  | > 100 µM | > 100 µM | > 100 µM |  |  |  |  |  |  |  |  |  |  |
| Cc1ccc2c(ccc3c[n+]4c5ccccc5ccc4n32)c1 | 3.51 µM | 14.4 µM | 1.59 µM | 12.6 µM | 2.32 µM | 2.13 µM | 45.1 µM | 3.25 µM | 54 µM | 25.1 µM | 0.606 µM | 0.584 µM | 0.316 µM | 1.28 µM | 0.795 µM | 0.39 µM | 4.42 µM | 1.32 µM | 5.42 µM | 4.11 µM |
| O=C(c1ccc(F)cc1)c1cccc(C(=O)c2ccc(F)cc2)n1 | 55.7 µM | > 100 µM | > 100 µM | 48.6 µM | > 100 µM | 67.8 µM | > 100 µM | > 100 µM | 66.6 µM | 69.3 µM |  |  |  |  |  |  |  |  |  |  |
| COc1ccc(-c2ccc(/C=N/n3c(COc4ccc(Cl)cc4Cl)n[nH]c3=S)o2)c([N+](=O)[O-])c1 | 33.2 µM | 47.4 µM | 45.1 µM | 35.7 µM | > 100 µM | 67.1 µM | 47.6 µM |  | > 100 µM | 49.2 µM | 16.1 µM | 19.3 µM | 19.9 µM | 19.8 µM | 34.7 µM | 23.1 µM | 21.3 µM |  | 43.9 µM | 16.8 µM |
| CN(C)/C=C/c1nnc([N+](=O)[O-])s1 | 36.8 µM |  | 14.6 µM | 51.5 µM | 35.4 µM | 42.1 µM |  | 17.4 µM | 29.7 µM | 58.5 µM |  |  |  |  |  |  |  |  |  |  |
| O=C([O-])c1ccccc1Nc1ccccn1.O=C([O-])c1ccccc1Nc1ccccn1.[Ni+2] | > 100 µM | > 100 µM | > 100 µM | > 100 µM | > 100 µM | > 100 µM | > 100 µM | > 100 µM | > 100 µM |  | > 100 µM | 49.5 µM | > 100 µM | > 100 µM | > 100 µM | 75.7 µM | 75.6 µM | > 100 µM | 48.9 µM |  |
| COC(=O)c1csnn1 | > 100 µM | > 100 µM | > 100 µM | > 100 µM | > 100 µM | > 100 µM |  | > 100 µM | > 100 µM | > 100 µM |  |  |  |  |  |  |  |  |  |  |
| COc1ccc(C(=O)/C=C/c2ccc(/C=C/c3cc(OC)c(OC)c(OC)c3)cc2)cc1 | 65.9 µM | > 100 µM | > 100 µM | 63.8 µM | > 100 µM | 88.3 µM | > 100 µM | 60.9 µM | > 100 µM |  | 5.39 µM | 3.03 µM | 13.2 µM | 12.8 µM | 7.13 µM | 6.08 µM | 34.1 µM | 3.76 µM | 4.64 µM |  |
| C=CCC1([C@H](C)[C@@H](OC(C)=O)c2cc(OC)c(OC)c(OC)c2)C[C@@H](OC)CCC1=O (stereo not given in full) | 22.8 µM | > 100 µM | 43.1 µM | 85.3 µM | 34.9 µM | 50.7 µM |  |  |  | > 100 µM |  |  |  |  |  |  |  |  |  |  |
